The source of these data is article PMC8622623, “Histamine H3 Receptor Ligands—KSK-59 and KSK-73—Reduce Body Weight Gain in a Rat Model of Excessive Eating” (Pharmaceuticals, 2021).

Data set [1] relates to non-obese rats fed palatable diet. The experiment in a line: Spontaneous activity (RFID TraffiCage). The data set is classed as in vivo, female Wistar rats. Conditions: KSK compounds 10 mg/kg, vs control fed palatable diet; for spontaneous activity after chronic administration: 27th day, i.p.; for spontaneous activity after first administration: day 1, i.p. As for the experimental part:
The spontaneous activity of rats was measured on the 1st and 27th day of the treatment with a special RFID-system—TraffiCage (TSE-Systems, Germany). The animals were subcutaneously implanted with transmitter identification (RFID), which enabled the presence and time spent in different areas of the cage to be counted and then the data were grouped in a special computer program.

A short description of data set [2]: Pharmacokinetics after single i.p. administration. The data set is classed as in vivo. Conditions: single i.p. 10 mg/kg; for AUC(0-inf) / Cmax / Tmax / CL/F / MRT / k el / Vd/F / half-life: ip; for AUC(0-inf): heading: AUC0-inf; for CL/F: read-out: CLS/F (clearance) (converted); for MRT: read-out: MRT (mean residence time); for k el: read-out: λz (terminal elimination rate constant) (converted); for Vd/F / half-life: rat, plasma; for Vd/F: n = 3, read-out: Vz/F (volume of distribution); for half-life: n = 3, read-out: t0.5λz (half-life) (converted). The procedure:
Six rats divided into two experimental groups were used in pharmacokinetic experiments. Three days before the experiment, rats’ jugular vein was cannulated allowing for the multiple blood sampling from the single animal. Investigated compounds suspended in 1% Tween 80 were administered i.p. at the single dose of 10 mg/kg. Blood samples (approximately 300 µL) were collected to Eppendorf tubes containing heparin at 5, 15, 30, 60, 120, 240 and 360 min after dosing. Plasma was harvested by centrifuging at 5000× g for 10 min and stored at −30 °C until bioanalysis.
Plasma concentrations of KSK-59 or KSK-73 were measured by liquid chromatography tandem mass spectrometry (LC-MS/MS) method. Samples (50 μL) were deproteinized at the ratio of 1:3 (v/v) with acetonitrile containing an internal standard (IS—pentoxifiline), briefly vortexed and then centrifuged for 10 min at the speed of 8000× g (Eppendorf miniSpin centrifuge). The supernatant was transferred into the autosampler vials and a sample volume of 10 μL was injected into LC-MS/MS system.
Chromatographic separation was carried out on XBridge™ C18 (3 × 50 mm, 5 µm, Waters, Dublin, Ireland) analytical column using the HPLC system Agilent 1100 (Agilent Technologies, Waldbronn, Germany). The mobile phase containing 0.1% formic acid in acetonitrile and in water was run at 0.3 mL/min in the gradient mode. Mass spectrometric detection was performed on an Applied Biosystems MDS Sciex (Concord, ON, Canada) API 2000 triple quadrupole mass spectrometer. Electrospray ionization (ESI) in the positive ion mode was used for ion production. The tandem mass spectrometer was operated at unit resolution in the selected reaction monitoring mode (SRM), monitoring the transitions of the protonated molecular ions m/z 382 to 107 for KSK-59, m/z 410 to 107 for KSK-73 and m/z 279 to 181 for IS. Data acquisition and processing were accomplished using the Applied Biosystems Analyst version 1.6 software. The calibration curves were constructed by plotting the ratio of the peak area of the studied compound to IS versus drug concentration and generated by weighted (1/x·x) linear regression analysis. The validated quantitation ranges were from 1 to 2000 ng/mL. Calculated accuracy and precision were within the ranges proposed by guidelines for bioanalytical methods validation (FDA, EMA). No significant matrix effect was observed and there were no stability related problems during the routine analysis of the samples.
Pharmacokinetic parameters were calculated by employing a non-compartmental approach, using Monolix version 2019R1 (Antony, France: Lixoft SAS, 2019) software. The area under the mean plasma concentration versus time curve extrapolated to infinity (AUC0-inf) was estimated using the log/linear trapezoidal rule. AUMC0-inf was estimated by calculation of total area under the first-moment curve by combining trapezoid calculation of AUMC0-t and extrapolated area. The mean residence time (MRT) was calculated from AUMC0-inf/AUC0-inf. The terminal rate constant (λz) was calculated by log-linear regression of the drug concentration data in the terminal phase and the terminal half-life (t1/2) were calculated as 0.693/λz. The clearance (CL/F) was estimated from the administered dose divided by AUC0-inf. The apparent volume of distribution during terminal phase (Vz/F) was calculated from (CL/F)/λz.

Details of data set [3]: method as in PMID 31362197. Conditions: PAMPA, published previously ref 17; cited from earlier work.
The subject of data set [4] is non-obese rats fed palatable diet. The experiment in a line: Intraperitoneal glucose tolerance test after 28 administrations. Format: in vivo, female Wistar rats. Conditions: for blood glucose levels at 30 or/and 60 min after glucose load: KSK compounds 10 mg/kg b.w. or bupropion/naltrexone, glucose 1 g/kg i.p., vs control fed palatable feed; for AUC of IPGTT: vs control rats fed high-calorie feed. The procedure:
The test was performed on the 29th day of the experiment. After twenty-eight administrations of the test compounds, food was discontinued for 20 h and then glucose tolerance was tested. Glucose (1 g/kg b.w.) was administrated i.p.. […] The area under the curve (AUC) was calculated using the trapezoidal rule.

Another data set is described as follows: in vitro. Conditions: PAMPA, pH 7.4. As for the experimental part:
The reference compounds, well-permeable caffeine and low-permeable norfloxacin were obtained from Sigma-Aldrich (St. Louis, MO, USA). Used for this study, pre-coated PAMPA Plate System Gentest™ was provided by Corning (Tewksbury, MA, USA). The system consisted of 96-well receiver filter plate pre-coated with structured layers of phospholipids and a donor microplate. The assay was performed as described previously. […] After 5 h of incubation at RT° the UPLC-MS spectrometry (Waters ACQUITY™ TQD system with the TQ Detector, Waters, Milford, MA, USA) method was used to estimate the quantity of compounds that penetrated from donor to acceptor wells. The permeability coefficients (Pe, cm/s) were calculated using the formulas provided by Corning.
(In general: In PAMPA a lipid-coated filter parts donor from acceptor wells.)

By AUC(0-inf) is commonly meant the area under the concentration-time curve extrapolated to infinity. Low values mean low exposure, high ones high exposure. By Cmax is commonly meant the maximum level reached in the sampled fluid or tissue. What is called Tmax is the time at which the peak concentration occurs. Usually MRT stands for a mean duration of stay, worked out from the concentration-time curve. One may read the half-life as the time needed for the level to fall by half in the phase considered. For the compound `CC(=O)c1ccc(OCCCCCCCCN2CCN(c3ccncc3)CC2)cc1.O=C(O)C(=O)O` [KSK-73, 1-(4-((8-(4-(pyridin-4-yl)piperazin-1-yl)octyl)oxy)phenyl)ethan-1-one oxalate], in data set [1], the “spontaneous activity after chronic administration” value was “no such changes were observed” and the “spontaneous activity after first administration” value is recorded as “statistically significant decrease in spontaneous activity”. In data set [2] (10 mg/kg, rat plasma, n = 3), the AUC(0-inf) is 888 ng·h/mL. In data set [2] (rat plasma, n = 3), the Cmax amounted to 216 ng/mL, the Tmax was found to be 4.98 min, the CL/F is 675 mL/min/kg and the MRT turned out to be 4.2 h. The k el in data set [2] (rat plasma, n = 3) is 5.28e-05 s⁻¹. In addition, in data set [2] (rat plasma), the “time at which Cmax was reached (first sampling point)” value amounted to 5 min. Moreover, in data set [2] (10 mg/kg), the Vd/F turned out to be 216 L/kg and the half-life is 222 min. Moreover, the “Pe (permeability coefficient) ± SD” value in data set [3] is reported as 6.22 ± 2.3 10^−6 cm/s. In addition, in data set [4], the “blood glucose levels at 30 or/and 60 min after glucose load” value is “significantly lower” and the “AUC of IPGTT” value is “statistically significantly decreased”.

What is called Papp is the rate of passage across a membrane or cell layer, normalised by area and donor concentration. Read a low Papp as poor permeation. On to `CC(=O)c1ccc(OCCCCCCN2CCN(c3ccncc3)CC2)cc1.O=C(O)C(=O)O` [KSK-59, 1-(4-((6-(4-(pyridin-4-yl)piperazin-1-yl)hexyl)oxy)phenyl)ethan-1-one oxalate], for which, in data set [1], the “spontaneous activity after chronic administration” value is “did not affect spontaneous activity” and the “spontaneous activity after first administration” value is recorded as “did not affect spontaneous activity”. Also, in data set [2] (10 mg/kg, rat plasma, n = 3), the AUC(0-inf) amounted to 538 ng·h/mL. In data set [2] (rat plasma, n = 3), the peak level (Cmax) was 96 ng/mL, the Tmax turned out to be 4.98 min, the CL/F was 1120 mL/min/kg and the MRT was found to be 2.04 h. In data set [2] (rat plasma, n = 3), the k el is 0.000122 s⁻¹. Also, in data set [2] (rat plasma), the “time at which Cmax was reached (first sampling point)” value is 5 min. In addition, in data set [2] (rat plasma, n = 3, 10 mg/kg), the “Vz/F (volume of distribution)” value is 152.22 L/kg and the “t0.5λz (half-life)” value was found to be 1.58 h. Also, in data set [2] (10 mg/kg), the Vd/F is 152 L/kg and the half-life was 96 min. In the data set “in vitro”, the Papp at 5 h, 200 µM was determined as 4.35 ± 0.93 ×10⁻⁶ cm/s. For the same compound, in data set [4], the “blood glucose levels at 30 or/and 60 min after glucose load” value was “significantly lower” and the “AUC of IPGTT” value was “statistically significantly decreased”.
